{
  "source": "patent US20180228775A1",
  "about": "“METHODS OF TREATING CANCER” (Dana-Farber Cancer Institute, Inc., priority 2014, published 2018)",
  "key": {"[1]": {"test_system": "human PBMC", "test": "Culture of human PBMC with GM-CSF (K562-GM) and PPAR-γ modulators: Treg numbers", "type": "cell-based"}, "[2]": {"test_system": "GM-CSF treated human monocytes", "test": "CCL17 and CCL22 expression by GM-CSF treated human monocytes (ELISA)", "type": "cell-based", "details": "human monocytes with GM-CSF", "protocol": "CCL17 levels were normalized to the number of monocytes per well.\nFIG. 43: Role of PPAR-g in restraining Treg recruitment and expansion is conserved in GM-CSF treated human monocytes.\nCCL17 levels were measured using ELISA (DY364, R&D Systems).\nIn addition, these cultures were treated with DMSO or Rosi."}},
  "data": [
    {"smiles": "CN(CCOc1ccc(CC2SC(=O)NC2=O)cc1)c1ccccn1", "note": "(stereo not shown) [Rosi, rosiglitazone]", "values": [
      {"measurement": "Treg number", "setting": "[1]; non-GM-CSF treated cultures (K562-WT)", "result": "no effect"}
    ]},
    {"smiles": "O=C(Nc1ccncc1)c1cc([N+](=O)[O-])ccc1Cl", "note": "[T0070907]", "values": [
      {"measurement": "CCL22 expression", "setting": "[2]", "result": "increasing"},
      {"measurement": "CCL17 expression", "setting": "[2]; 10 uM Rosi, 5 days, ELISA", "result": "increasing"},
      {"measurement": "Treg number / GM-CSF induced Treg expansion", "setting": "[1]; human PBMC with GM-CSF (K562-GM), 10 uM Rosi or T0070907 luM every 48 hours, day 4-6", "result": "increase"}
    ]}
  ]
}
